Test results from patent publication US20110230367A1, “Amphiphilic Peptides Promoting Production of Target miRNA and Method of Regulating Production of Target miRNA” (SNU R&DB FOUNDATION, priority 2009, published 2011).
“Also recorded” adds a separate entry of the source. Read-outs that look alike come from different tables or passages of the source.

Legend:
pre-miR16-1 = experiment: Dissociation constant by competitive fluorescence anisotropy with rhodamine-rev peptide probe; format: binding; conditions: for Discrimination ratio pre-miR16-1 (in parenthesis): Kd against other RNA/Kd against target miRNA
Description: (§1) The binding affinity between the peptide synthesized in <Example 1> and pre-miRNA from <Example 2> were measured by fluorescence anisotropy using competitive binding method. A rev peptide with rhodamine attached at the N-terminal was used as a fluorescent probe and LS-55 luminescence spectrometer from Perkin-Elmer was use for analysis. A constant temperature of 20° C. was maintained by a water bath. The fluorescent intensity was measured by of 200 nM of rhodamine-rev peptide was measured with an excitation wavelength at 550 nm (band path 10 nm) and detection at 580 nm (band path 10 nm). The integration time […]. Each experimental value is the mean value of 5 measurements. A 20 mM of HEPES{4-(2-hydroxyethyl)-1-piperazineethanesulfonic acid} buffer (pH 7.5) containing 140 mM NaCl, 5 mM KCl and 1 mM MgCl2 was used for measuring the dissociation constant. The dissociation constant was determined according to the Mathematical Formula 1 and using Kaledia graph.
(§2) A and Ao are the fluorescence anistropy in the presence or absence of RNA, whereas ΔA is the difference between these two values. [RNA]0 and [Rh-rev]0 are initial concentrations of RNA and rev peptide binding with rhodamine.
(§3) According the method described in <Example 3>, the dissociation constant between second generation peptide and 2 pre-miRNAs synthesized from <Example 2> was determined using fluorescent polarization detection method and fluorescent probe molecule.

IRES (hairpin RNA) = experiment: as above; format: binding; conditions: Table 6
Description: as §1, §2, §3

pre-let7a-1 = experiment: as above; format: binding; conditions: for Discrimination ratio pre-let7a-1 (in parenthesis): Kd against other RNA (HBV, IRES, other miRNAs)/Kd against target miRNA
Description: as §1, §2, §3

pre-miR24-1 = experiment: as above; format: binding; conditions: Table 6; for Discrimination ratio pre-miR24-1 (in parenthesis): Kd against other RNA/Kd against target miRNA
Description: as §1, §2, §3

HBV (hairpin RNA) = experiment: as above; format: binding; conditions: Table 6
Description: as §1, §2, §3

[1] = tested on: mature let7a-1 in HCT116 cells; experiment: Production of mature miRNA in HCT116 cells by northern blotting; format: cell-based; conditions: 2 μM peptide, 3 hrs, FIG. 4
Description: The HCT116 cell was purchased from American Type Culture Collection (ATCC) and was cultured in RPMI1640 medium at 37° C., under 5% CO2. Total RNA was extracted using Trizol reagent (Invitrogen) according to the manufactures recommended protocol.
The change in RNA amount was analyzed by culturing the cells with 2 μM concentration of peptide 2b or peptide 2c and with lipofectamine.
HCT116 cells were treated with 2 μM of peptide 2b, 2c, 1e or 0.2 μg/ml of doxorubicin for 3 hrs before analyzing the production of mature miRNA in total RNA using northern blotting. The 18S rRNA band intensity was used as the loading control. […] Peptide 1e was used as a negative control. Decade marker (Ambion) and 10˜20 μg of total RNA were separated by using 12.5% polyacrylamide gel containing 7M urea in 20 mM of 3-(N-morpholino)propanesulfonic acid (MOPS)-NaOH(pH 7.0) buffer at 350V for 2 hrs. RNA blotting was performed by chemical cross-linking method. Each of the separated RNA was transferred with the neutral nylon membrane (Hybond NX, Amersham/Pharmacia) and crosslinked to the membrane using 1-ethyl-3-(3-dimethylaminopropyl)carbodiimide (EDC). The membrane was prehybridized with the hybridization buffer (Clontech, CA, USA) containing 50 μl of 10 mg/ml of salmon sperm DNA. Next, the isotope labeled probe DNA which is complementary to the miRNA sequence was hybridized for 2 hrs in the same buffer condition.
The probe was isotope labeled with 25 μCi of [γ-^32P] ATP (New England Biolabs) and 5 units of polynucleotide kinase (New England Biolabs). The probe was ethanol precipitated and dissolved in 50 μl of DEPC treated water for use. The membrane was washed twice for 30 min with 200 ml of wash buffer containing 0.3 M NaCl, 0.03 M sodium citrate and 0.05% sodium dodecyl sulfate (SDS)(pH 7.0), then washed twice for 15 min with 200 ml of wash buffer containing 0.015 M NaCl, 0.0015 M sodium citrate and 0.1% SDS(pH 7.0). The membrane was exposed on the phosphorimager screen and each of the band intensity was detected by FLA-3000 and analyzed by using MultiGauge Ver. 3.0 software (Fuji Photo).

[2] = tested on: recombinant human Dicer processing pre-miR16-1; experiment: Dicer activity assay in the presence of peptide, substrate pre-miR16-1; format: biochemical; conditions: 400 nM peptide, pre-miR16-1 substrate, FIG. 2
Description: Two types of pre-miRNA (pre-let7a-1, pre-miR16-1) used as the substrate for the Dicer enzyme activity assay was ordered and manufactured by ST Pharm Co., Ltd (FIG. 1). For Dicer activity assay, the 5′ end of the synthesized pre-miRNA was labeled with ^32p isotope. Two pmole of each pre-miRNA was isotope labeled with […] of [g-^32P]ATP (New England Biolabs) using 10 units of T4 polynucleotide kinase (New England Biolabs). Total volume of 10 μl was isotope labeled for 1 hr at 37° C. The isotope labeled RNA obtained after the reaction was purified using G-25 Sephadex column (Sigma). The purified substrate was used for measuring Dicer enzyme activity. Total reaction mixture of 30 μl containing 1 nM of isotope labeled pre-miRNA and 0.001 u/μl of recombinant human Dicer (Genlantis, CA, USA) were incubated at 37° C. in 24 mM 4-(2-hydroxyethyl)-1-piperazineethanesulfonic acid, HEPES) buffer system containing 200 mM NaCl, 0.04 mM EDTA, 1 mM ATP and 2.5 mM MgCl2(pH 8.0). After reacting for 0, 10, 30, 60 or 120 min in the presence of 400 nM concentration of 2b or 2c peptide, 3 μl of each reaction mixture was mixed with 5 μl of RNA gel loading buffer {95% formamide, 10 mM ethylenediaminetetraacetic acid (EDTA), 0.05% FF (xylene cyanol FF)} and incubated for 5 min at 65° C. The amount of the reaction product was determined by gel running in 15% polyacrylamide gel containing 7M urea, and then the initial reaction velocity (V0) from each reaction was compared. The initial reaction velocity (V0) of the enzyme is the reaction velocity of the initial linear time (until 30 min). Each initial velocity was normalized with the initial velocity from each substrate condition without peptide treatment. The initial reaction velocity of Dicer for pre-let7a-1 and pre-miR16-1 without peptide treatment were […] and 0.018 fmole/min, respectively. Each of the initial reaction velocity is a mean data of more than 3 measurements, and the standard deviation is shown as error bars.

[3] = Table 5, second generation peptides, read-out: Kd value against pre-miR16-1
[4] = Table 6, read-out: Kd pre-miR16-1
[5] = Table 5, second generation peptides, read-out: Kd value against pre-let7a-1
[6] = Table 6, read-out: Kd pre-let7a-1

Sequence	binding with pre-miR16-1 (pre-miR16-1)	Kd (pre-miR16-1; [3]) [nM]	Discrimination ratio pre-miR16-1 (in parenthesis) (pre-miR16-1; Table 6)	Kd (pre-miR16-1; [4]) [nM]	Kd (IRES (hairpin RNA)) [nM]	Kd (pre-let7a-1; [5]) [nM]	Discrimination ratio pre-let7a-1 (in parenthesis) (pre-let7a-1; Table 6)	Kd (pre-let7a-1; [6]) [nM]	Kd (pre-miR24-1) [nM]	Discrimination ratio pre-miR24-1 (in parenthesis) (pre-miR24-1)	Kd (HBV (hairpin RNA)) [nM]	level of mature let7a-1 [1]	initial reaction velocity (V0) of Dicer, normalized to no peptide [2]	binding with pre-let7a-1 (pre-let7a-1)	discrimination ratio for pre-let7a-1 (pre-let7a-1; mean Kd against all hairpin pre-miRNA/Kd against target pre-miRNA)
WKKLLKLLKKWLKLAG [Peptide 2c, Ac-WKKLLKLLKKWLKLAG, 14]	first and second strongest binding	0.27	1.4	0.27	0.46	0.15	2.8	0.15	0.88	0.41	0.46	increased	increase in initial reaction velocity; also recorded: accelerated		
WKKLLKWLKKLLKLAG [Peptide 2b, Ac-WKKLLKWLKKLLKLAG, 13]	first and second strongest binding	0.22	1.1	0.22	1	0.067	11	0.067	0.43	1.5	0.9	significant increase	significantly increased; also recorded: accelerated	strong binding; also recorded: strongest binding	11
